From PMC10777911, “A Potent PDK4 Inhibitor for Treatment of Heart Failure with Reduced Ejection Fraction” (Cells, 2023)
In brackets after ≈: the same amount, converted by molar mass.

Tests used:
[1] = molecular target: T1, Full-length human PDK4 (GST-fusion) (Homo sapiens, UniProt Q16654); test: Off-chip mobility shift assay (MSA) for PDK4 inhibition; assay type: biochemical; details: at 10 µg/mL of each inhibitor; for inhibition at 10 µg/mL: read-out: PDK4 Inhibitory Activity (%)
T1 construct: GST (Glutathione S-transferase) (N); made in house; host or cells: E. coli
T1 sequence (Q16654 whole entry, the tested form may be a part): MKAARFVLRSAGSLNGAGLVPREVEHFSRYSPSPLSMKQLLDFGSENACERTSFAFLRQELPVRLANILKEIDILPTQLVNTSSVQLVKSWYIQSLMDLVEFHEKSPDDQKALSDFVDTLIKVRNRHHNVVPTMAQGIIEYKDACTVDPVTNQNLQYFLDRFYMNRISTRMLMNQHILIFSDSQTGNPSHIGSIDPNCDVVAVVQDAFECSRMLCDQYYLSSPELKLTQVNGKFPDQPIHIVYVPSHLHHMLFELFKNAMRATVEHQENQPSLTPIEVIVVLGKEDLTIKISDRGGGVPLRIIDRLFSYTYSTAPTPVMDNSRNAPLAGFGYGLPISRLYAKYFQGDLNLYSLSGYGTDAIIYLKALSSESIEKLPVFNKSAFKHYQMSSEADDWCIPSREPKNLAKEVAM
Procedure: Full-length human PDK4 [amino acids 1-411 of accession number NP_002603.1] was expressed as an N-terminal Glutathione S-transferase (GST)-fusion protein (73 kDa) using an E. coli expression system. GST-PDK4 was purified using glutathione affinity chromatography.
Derivatives were dissolved in dimethyl sulfoxide (DMSO) and further diluted in DMSO to prepare a solution with a 100-fold higher concentration than the test sample solution. This solution was further diluted 25-fold in assay buffer (20 mM 4-(2-hydroxyethyl)-1-piperazineethanesulfonic acid (HEPES), 0.01% Triton X-100, 2 mM dithiothreitol (DTT), pH 7.5) to make a test sample solution. The positive control substance solution was prepared the same way.
(1) 5µL of test sample solution, 5 µL of substrate/ATP/metal solution in assay buffer (20 mM HEPES, 0.01% Triton X-100, 2 mM DTT, pH 7.5), and 10 µL of kinase solution in assay buffer prepared in assay buffer were mixed in the wells of a 384-well polypropylene plate and allowed to react for 5 h at room temperature. (2) The reaction was stopped by adding 70 µL of Termination Buffer (QuickScout Screening Assist MSA; Carna Biosciences). (3) Substrate peptides and phosphorylated peptides in the reaction solution were separated and quantified using the LabChip system (Perkin Elmer, Shelton, CT, USA). (4) The product ratio (P/(P+S)) was calculated from the substrate peptide peak height (S) and the phosphorylated peptide peak height (P) of the kinase reaction.
The average signal in control wells containing all reaction components was considered to be 0% inhibition. The average signal in background wells (without enzyme) was considered as 100% inhibition, and the % inhibition was calculated from the average signal in each test sample well.

[2] = tested on: TAC mice (heart failure with reduced EF); test: Transverse aortic constriction (TAC) heart failure model, echocardiography; assay type: in vivo, mouse (C57BL/6J); details: 2.8 mg/kg i.p. once daily for 1 week, compared to DCA
Procedure: C57BL/6J mice were purchased from Japan SLC, Inc. (Hamamatsu, Japan) and Takasugi Experimental Animals Supply Co., Ltd. (Kasukabe, Japan), and were kept under a 12 h light–dark schedule. All animal handling procedures in this study complied with the Jichi Medical University Guide for Laboratory Animals and the ARRIVE guidelines. The Institutional Animal Care and Concern Committee at Jichi Medical University approved all experimental protocols. This study used 8-week-old male mice.
Mice were intubated prior to surgery and were maintained under assisted ventilation on a heating pad throughout the procedure. Under a microscope, a midline incision was made on the skin from the neckline to the mid-chest level. A partial thoracotomy was made through the second rib, and the sternum was retracted to aid visualization of the aorta. After periaortic tissue was removed, a 27-G blunt needle was placed in parallel along the transverse aorta, and the suture was tied over the needle between the innominate artery and the left common carotid. Then, the rib cage was closed, followed by closure of the skin. […] Mice were kept in a heating unit until they recovered completely from anesthesia.
At weeks 0, 4, and 5 after TAC induction, mice were anesthetized with 1.5% isoflurane and secured on an animal handling and physiological monitoring system in the supine position. Images were captured with a 30 MHz probe attached to a Vevo 2100 (VisualSonics, Toronto, ON, Canada). Heart rate was maintained at 400 to 500 bpm, and the temperature of the system was kept at 37 °C while echocardiographic images were captured. The ejection fraction was calculated using the Vevo2100 system based on the Teichholz method.
Four weeks after the TAC surgery, mice with an EF less than 55 were subjected to injection. Then, 2.8 mg/kg of compound 8 or DCA in 5% DMSO in saline or 5% DMSO in saline was injected peritoneally every day for 7 days.
(§1) With five synthesized Vitamin K3 derivatives, their in vitro PDK4 inhibitory activity and cytotoxicity were evaluated. In vitro activities were tested using fluorescently labeled PDH by measuring phosphorylated and unphosphorylated PDH of the derivatives using a CCD camera. For cytotoxicity, IC50 values were calculated by adding the derivatives to the human fibroblast culture medium and monitoring growth inhibition. Then, we evaluated the efficacy of novel PDK4 inhibitor candidates in the treatment of heart failure. The transverse aorta of wild-type mice was constricted to induce a pressure overload in the left ventricle, and the ejection fraction (EF) was postoperatively measured at 4 weeks. Subsequently, 2.8 mg/kg of each derivative was intraperitoneally administered to mice once daily for 1 week to evaluate improvement in EF values.

[3] = tested on: human fibroblast cells; test: Cytotoxicity assay against human fibroblast cells (growth inhibition); assay type: cell-based; details: human fibroblasts, read-out: Toxicity (IC50), half-maximal inhibitory concentration to inhibit fibroblast growth
Procedure: Wild-type fibroblasts obtained from a volunteer expressing [F352F + V368V] (FV–FV alleles), purchased from RIKEN Cell Bank (Tsukuba, Japan), were used, and the cytotoxicity assay was carried out as described in the previous paper.
as §1

[4] = tested on: PDK4; parameters: method as in PMID 24865588; details: previous study; read-out: IC50 of PDK4 inhibition; cited from earlier work

Row | SMILES | inhibition at 10 µg/mL [1] | melting point | PDK4 Inhibitory Activity (%) [1] | Change in EF (EF5/EF4) after a week of daily injection [2] | IC50 [3] | IC50 [4]
1 | COC(=O)c1ccc2c(c1)C(=O)C=C(C)C2=O [Compound 11] | 65.4% |  |  | improve | 7 µg/mL (≈ 30.4 µM) | 
2 | COC(=O)c1ccc2c(c1)C(=O)C(C)=CC2=O [Compound 5] | 34.6% |  |  | improve | 8 µg/mL (≈ 34.7 µM) | 
3 | O=C(O)C(Cl)Cl [DCA, dichloroacetic acid] |  |  |  |  |  | 57.8 µM
4 | CC1=CC(=O)c2ccccc2C1=O [Vitamin K3, reference compound] | 66% |  | 65.9% |  | 18 µg/mL (≈ 105 µM) | 

The next lines start with results.

Row | inhibition at 10 µg/mL [1] | melting point | PDK4 Inhibitory Activity (%) [1] | SMILES | Change in EF (EF5/EF4) after a week of daily injection [2] | IC50 [3] | IC50 [4]
5 | 66.8% | 163 to 163.2 °C |  | CC1=CC(=O)c2cc(C(=O)NCC(=O)O)ccc2C1=O [Compound 13a] | improve | > 110 µg/mL | 
6 | 63.2% | 166.6 to 166.8 °C |  | CC1=CC(=O)c2cc(C(=O)N[C@@H](CO)C(=O)O)ccc2C1=O [Compound 13b] | improve | > 99 µg/mL | 
